Results as given in ChEMBL document CHEMBL3044672, “N9- and N7-(Chloromethyl Phenymethyl)Chloropurine Derivatives from , '-Dichloroxylenes: Synthesis and Anticancer Activity” (2005).

Experiments:
Assay type in all cases: functional
[1] = tested on: A498; assay: Cytotoxicity against Homo sapiens (human) A498 cells after 48 hr by sulforhodamine B assay; conditions: A498, 48 h
[2] = tested on: OVCAR-4; assay: Cytotoxicity against Homo sapiens (human) OVCAR4 cells after 48 hr by sulforhodamine B assay; conditions: OVCAR-4, 48 h
[3] = tested on: IGROV-1; assay: Cytotoxicity against Homo sapiens (human) IGROV1 cells after 48 hr by sulforhodamine B assay; conditions: IGROV-1, 48 h
[4] = tested on: UACC-257; assay: Cytotoxicity against Homo sapiens (human) UACC257 cells after 48 hr by sulforhodamine B assay; conditions: UACC-257, 48 h
[5] = tested on: SK-MEL-5; assay: Cytotoxicity against Homo sapiens (human) SK-MEL-5 cells after 48 hr by sulforhodamine B assay; conditions: SK-MEL-5, 48 h
[6] = tested on: SK-MEL-28; assay: Cytotoxicity against Homo sapiens (human) SK-MEL-28 cells after 48 hr by sulforhodamine B assay; conditions: SK-MEL-28, 48 h
[7] = tested on: LOX IMVI; assay: Cytotoxicity against Homo sapiens (human) LOXIMVI cells after 48 hr by sulforhodamine B assay
[8] = tested on: M14; assay: Cytotoxicity against Homo sapiens (human) M14 cells after 48 hr by sulforhodamine B assay; conditions: M14, 48 h
[9] = tested on: U-251; assay: Cytotoxicity against Homo sapiens (human) U251 cells after 48 hr by sulforhodamine B assay; conditions: U-251, 48 h
[10] = tested on: T47D; assay: Cytotoxicity against Homo sapiens (human) T47D cells after 48 hr by sulforhodamine B assay
[11] = tested on: MDA-MB-435; assay: Cytotoxicity against Homo sapiens (human) MDA-MB-435 cells after 48 hr by sulforhodamine B assay; conditions: MDA-MB-435, 48 h
[12] = tested on: Hs-578T; assay: Cytotoxicity against Homo sapiens (human) Hs 578T cells after 48 hr by sulforhodamine B assay
[13] = Cytotoxicity against Homo sapiens (human) NCI-ADR-RES cells after 48 hr by sulforhodamine B assay
[14] = tested on: DU-145; assay: Cytotoxicity against Homo sapiens (human) DU145 cells after 48 hr by sulforhodamine B assay; conditions: DU-145, 48 h
[15] = tested on: MCF7; assay: Cytotoxicity against Homo sapiens (human) MCF7 cells after 48 hr by sulforhodamine B assay; conditions: MCF7, 48 h
[16] = tested on: UO-31; assay: Cytotoxicity against Homo sapiens (human) UO31 cells after 48 hr by sulforhodamine B assay; conditions: UO-31, 48 h
[17] = tested on: PC-3; assay: Cytotoxicity against Homo sapiens (human) PC3 cells after 48 hr by sulforhodamine B assay; conditions: PC-3, 48 h
[18] = tested on: SN12C; assay: Cytotoxicity against Homo sapiens (human) SN12C cells after 48 hr by sulforhodamine B assay
[19] = tested on: TK-10; assay: Cytotoxicity against Homo sapiens (human) TK10 cells after 48 hr by sulforhodamine B assay; conditions: TK-10, 48 h; for CC50: read-out: LC50 (the source's name)
[20] = tested on: KM12; assay: Cytotoxicity against Homo sapiens (human) KM12 cells after 48 hr by sulforhodamine B assay; conditions: KM12, 48 h; for CC50: read-out: LC50 (the source's name)
[21] = tested on: HT-29; assay: Cytotoxicity against Homo sapiens (human) HT-29 cells after 48 hr by sulforhodamine B assay; conditions: HT-29, 48 h; for CC50: read-out: LC50 (the source's name)
[22] = tested on: HCT-15; assay: Cytotoxicity against Homo sapiens (human) HCT15 cells after 48 hr by sulforhodamine B assay; conditions: HCT-15, 48 h; for CC50: read-out: LC50 (the source's name)
[23] = tested on: HCC 2998; assay: Cytotoxicity against Homo sapiens (human) HCC2998 cells after 48 hr by sulforhodamine B assay; conditions: HCC 2998, 48 h; for CC50: read-out: LC50 (the source's name)
[24] = tested on: NCI-H460; assay: Cytotoxicity against Homo sapiens (human) NCI-H460 cells after 48 hr by sulforhodamine B assay; conditions: NCI-H460, 48 h; for CC50: read-out: LC50 (the source's name)
[25] = tested on: NCI-H23; assay: Cytotoxicity against Homo sapiens (human) NCI-H23 cells after 48 hr by sulforhodamine B assay; conditions: NCI-H23, 48 h; for CC50: read-out: LC50 (the source's name)
[26] = tested on: NCI-H226; assay: Cytotoxicity against Homo sapiens (human) NCI-H226 cells after 48 hr by sulforhodamine B assay; conditions: NCI-H226, 48 h; for CC50: read-out: LC50 (the source's name)
[27] = tested on: HOP-92; assay: Cytotoxicity against Homo sapiens (human) HOP92 cells after 48 hr by sulforhodamine B assay; conditions: HOP-92, 48 h; for CC50: read-out: LC50 (the source's name)
[28] = tested on: A549; assay: Cytotoxicity against Homo sapiens (human) A549 cells after 48 hr by sulforhodamine B assay; conditions: A549, 48 h; for CC50: read-out: LC50 (the source's name)
[29] = tested on: RPMI-8226; assay: Cytotoxicity against Homo sapiens (human) RPMI8226 cells after 48 hr by sulforhodamine B assay; conditions: RPMI-8226, 48 h; for CC50: read-out: LC50 (the source's name)
[30] = tested on: K562; assay: Cytotoxicity against Homo sapiens (human) K562 cells after 48 hr by sulforhodamine B assay; conditions: K562, 48 h; for CC50: read-out: LC50 (the source's name)
[31] = tested on: MCF7; assay: Cytotoxicity against Homo sapiens (human) MCF7 cells assessed as cell growth at 10^-4 M after 48 hr by Alamar blue assay; conditions: MCF7, 48 h, read-out: Activity
[32] = tested on: NCI-H460; assay: Cytotoxicity against Homo sapiens (human) NCI-H460 cells assessed as cell growth at 10^-4 M after 48 hr by Alamar blue assay; conditions: NCI-H460, 48 h, read-out: Activity

ClCc1ccccc1Cn1cnc2c(Cl)ncnc21
GI50 [1]: 17.4 µM
LC50 (lethal concentration, 50% cell kill) [1]: 58.9 µM
TGI [1]: 32.4 µM
GI50 [2]: 3.38 µM
LC50 (concentration killing 50% of cells) [2]: 45.7 µM
TGI [2]: 12.3 µM
GI50 [3]: 3.16 µM
LC50 [3]: 55 µM
TGI [3]: 8.91 µM
GI50 [4]: 10.7 µM
LC50 (concentration killing 50% of cells) [4]: 66.1 µM
TGI [4]: 26.3 µM
GI50 [5]: 1.41 µM
LC50 [5]: 5.88 µM
TGI [5]: 2.88 µM
GI50 [6]: 2.29 µM
LC50 (concentration killing 50% of cells) [6]: 24.6 µM
TGI [6]: 5.49 µM
GI50 [7]: 2.13 µM
LC50 [7]: > 100 µM
TGI [7]: 5.24 µM
GI50 [8]: 1.95 µM
LC50 [8]: 7.24 µM
TGI [8]: 3.71 µM
GI50 [9]: 2.63 µM
LC50 (concentration killing 50% of cells) [9]: 61.7 µM
TGI [9]: 6.16 µM
GI50 [10]: 17.8 µM
LC50 [10]: > 100 µM
TGI [10]: 61.7 µM
GI50 [11]: 3.02 µM
LC50 [11]: 36.3 µM
TGI [11]: 9.55 µM
GI50 [12]: 2.29 µM
LC50 [12]: 56.2 µM
TGI [12]: 6.6 µM
GI50 [13]: 2.18 µM
LC50 (concentration killing 50% of cells) [13]: 10.5 µM
TGI [13]: 4.67 µM
GI50 [14]: 5.62 µM
LC50 [14]: > 100 µM
TGI [14]: 34.7 µM
GI50 [15]: 11 µM
LC50 (concentration killing 50% of cells) [15]: > 100 µM
TGI [15]: > 100 µM
GI50 [16]: 2.63 µM
LC50 (concentration causing 50% net cell kill) [16]: 61.7 µM
TGI [16]: 10.5 µM
GI50 [17]: 3.02 µM
LC50 (concentration causing 50% cell kill) [17]: 53.7 µM
TGI [17]: 10.5 µM
GI50 [18]: 3.38 µM
LC50 (50% lethal concentration) [18]: 95.5 µM
TGI [18]: 8.71 µM
GI50 [19]: 22.9 µM
TGI [19]: 46.8 µM
CC50 [19]: 95.5 µM
GI50 [20]: 16.6 µM
TGI [20]: 33.1 µM
CC50 [20]: 66.1 µM
GI50 [21]: 3.54 µM
TGI [21]: > 100 µM
CC50 [21]: > 100 µM
GI50 [22]: 2.09 µM
TGI [22]: 4.67 µM
CC50 [22]: 43.6 µM
GI50 [23]: 1.66 µM
TGI [23]: 3.54 µM
CC50 [23]: 7.41 µM
GI50 [24]: 15.5 µM
TGI [24]: 44.7 µM
CC50 [24]: > 100 µM
GI50 [25]: 2.04 µM
TGI [25]: 4.36 µM
CC50 [25]: 9.33 µM
GI50 [26]: 4.57 µM
TGI [26]: 12.6 µM
CC50 [26]: 38.9 µM
GI50 [27]: 1.48 µM
TGI [27]: 4.26 µM
CC50 [27]: 21.4 µM
GI50 [28]: 7.76 µM
TGI [28]: 25.7 µM
CC50 [28]: 75.9 µM
GI50 [29]: 14.1 µM
TGI [29]: 40.7 µM
CC50 [29]: > 100 µM
GI50 [30]: 1.2 µM
TGI [30]: 5.12 µM
CC50 [30]: > 100 µM
growth at 100 µM [31]: 43%
growth at 100 µM [32]: 0%

ClCc1cccc(Cn2cnc3ncnc(Cl)c32)c1
GI50 [1]: 18.2 µM
LC50 (lethal concentration, 50% cell kill) [1]: 6.6 µM
TGI [1]: 36.3 µM
GI50 [2]: 4.16 µM
LC50 (concentration killing 50% of cells) [2]: 46.8 µM
TGI [2]: 15.8 µM
GI50 [3]: 3.38 µM
LC50 [3]: 5.88 µM
TGI [3]: 13.8 µM
GI50 [4]: 1.94 µM
LC50 (concentration killing 50% of cells) [4]: 18.6 µM
TGI [4]: 5.49 µM
GI50 [5]: 4.67 µM
LC50 [5]: 45.7 µM
TGI [5]: 18.2 µM
GI50 [6]: 1.81 µM
LC50 (concentration killing 50% of cells) [6]: 42.6 µM
TGI [6]: 3.54 µM
GI50 [7]: 3.09 µM
LC50 [7]: 43.6 µM
TGI [7]: 14.1 µM
GI50 [8]: 3.09 µM
LC50 [8]: 67.6 µM
TGI [8]: 14.5 µM
GI50 [9]: 1.94 µM
LC50 (concentration killing 50% of cells) [9]: > 100 µM
TGI [9]: 3.98 µM
GI50 [10]: 0.21 µM
LC50 [10]: 2.88 µM
TGI [10]: 0.5 µM
GI50 [11]: 3.46 µM
LC50 [11]: 39.8 µM
TGI [11]: 12.9 µM
GI50 [12]: 18.2 µM
LC50 [12]: 97.7 µM
TGI [12]: 42.6 µM
GI50 [13]: 2.75 µM
LC50 (concentration killing 50% of cells) [13]: 81 µM
TGI [13]: 9.77 µM
GI50 [14]: 15.1 µM
TGI [14]: 30.9 µM
GI50 [15]: 1.58 µM
LC50 (concentration killing 50% of cells) [15]: 39 µM
TGI [15]: 3.98 µM
GI50 [16]: 1.54 µM
LC50 (concentration causing 50% net cell kill) [16]: 26.9 µM
TGI [16]: 3.09 µM
GI50 [17]: 2.13 µM
LC50 (concentration causing 50% cell kill) [17]: 63.1 µM
TGI [17]: 5.37 µM
GI50 [18]: 7.07 µM
LC50 (50% lethal concentration) [18]: 6.16 µM
TGI [18]: 20.4 µM
GI50 [19]: 1.77 µM
TGI [19]: 3.31 µM
CC50 [19]: 6.3 µM
GI50 [20]: 1.86 µM
TGI [20]: 3.31 µM
CC50 [20]: 67.6 µM
GI50 [21]: 2.88 µM
TGI [21]: > 100 µM
CC50 [21]: 6.02 µM
GI50 [22]: 1.94 µM
TGI [22]: 4.36 µM
CC50 [22]: > 100 µM
GI50 [23]: 1.69 µM
TGI [23]: 3.23 µM
CC50 [23]: 40.7 µM
GI50 [24]: 2.08 µM
TGI [24]: 4.46 µM
CC50 [24]: 91.2 µM
GI50 [25]: 1.23 µM
TGI [25]: 3.38 µM
CC50 [25]: 5.88 µM
GI50 [26]: 3.16 µM
TGI [26]: 8.7 µM
CC50 [26]: 9.33 µM
CC50 [27]: 52.5 µM
GI50 [28]: 17.4 µM
TGI [28]: 39.8 µM
CC50 [28]: 91.2 µM
GI50 [29]: 13.8 µM
TGI [29]: 34.7 µM
CC50 [29]: 89.1 µM
GI50 [30]: 16.6 µM
TGI [30]: 47.9 µM
CC50 [30]: > 100 µM
growth at 100 µM [31]: 1%
growth at 100 µM [32]: 0%
